US20170130196A1, “METHOD FOR CULTURING AND PATTERNING CELLS” (President and Fellows of Harvard College, priority 2015, published 2017)

Test system: GFP-expressing A549 human lung cancer cells
Assay: Response of cells-in-string to toxins/drugs (crossed drug-laden string, confocal imaging)
Assay type: cell-based
Experimental: Scale bar represents 150 μm.
Cells in string were evaluated for the effect of a toxic drug on cancer cells. Green fluorescent protein (GFP) expressing A549 human lung cancer cells were grown in cotton string in Matrigel for two days. […] Doxorubicin was selected due to its potency in cancer treatment. These two strings were then crossed and sandwiched between two layers of filter paper that were impregnated with Matrigel. This assembly was cultured for two days and the cellular patterns that were transferred to the paper were imaged. […] A second experiment included the doxorubicin-laden string (FIG. 7B).

COc1cccc2c1C(=O)c1c(O)c3c(c(O)c1C2=O)C[C@@](O)(C(=O)CO)C[C@@H]3O[C@H]1C[C@H](N)[C@H](O)[C@H](C)O1 [Doxorubicin]
cell death of GFP-A549 cells where exposed to drug-laden top string (1 μM Doxorubicin embedded in top string, cells grown in silk string for two days, top string removed following 24 h culture (FIG. 7B)): died in the area where they were exposed to the top string | cell death of GFP-A549 cells where contacted by drug-laden top string (1 mM Doxorubicin encapsulated in string, cells in cotton string in Matrigel, crossed, sandwiched between Matrigel-impregnated filter paper, cultured two days): died on the region where they contacted the top string containing doxorubicin
